Reference: US20220142948A1, “COMPOSITIONS AND METHODS FOR MODULATING METABOLIC REGULATORS OF T CELL PATHOGENICITY” (The Broad Institute, Inc., priority 2019, published 2022)
“Also recorded” adds a separate entry of the source.

Columns and labels:
[1] = test system: Th17 cells (Th17n, Th17p); assay: Legendplex analysis of cytokines in culture supernatant; type: cell-based, mouse; details: glycolysis enzyme inhibitors; Th17 cell cultures
Description: (§1) Legendplex. Cytokine concentrations in supernatants of in vitro cultures were analyzed by the LegendPlex Mouse Th Cytokine Panel (13-plex) (BioLegend) according to the manufacturer's instructions and analyzed on a FACS LSR II (BD Biosciences).
Seahorse assay was performed and seahorse media was prepared following manufacturer instructions (Agilent). Cells were re-stimulated with PMA/ionomycin for four hours in the presence of brefaldin and monensin before analysis for cytokines by intracellular cytokine staining. Cytokine concentrations in supernatants of in vitro cultures were analyzed by the LegendPlex Mouse Th Cytokine Panel (13-plex) (BioLegend) according to the manufacturer's instructions and analyzed on a FACS LSR II (BD Biosciences).

[2] = test system: Th17 cells (Th17n, Th17p); assay: T cell differentiation culture and flow cytometry (intracellular cytokine and transcription factor staining, CellTrace proliferation); details: for IL-17 positive CD4 T cells / IL-17 expression: glycolysis enzyme inhibitors, non-pathogenic or pathogenic Th17 conditions, cells after one division
Description: Naïve CD4+CD44-CD62L+CD25-T cells were sorted using BD FACSAria sorter and activated with plate-bound anti-CD3 (1 μg/ml) and antiCD28 antibodies (2 μg/ml) in the presence of cytokines at a concentration of 5×10^5 cells/ml.
Naïve CD4+CD44-CD62L+CD25− T cells with or without including IL-17A.GFP+ were sorted using BD FACSAria sorter and activated with plate-bound anti-CD3 and antiCD28 antibodies (each 1 μg/ml) in the presence of cytokines at a concentration of 5×10^5 cells/ml. For T cell differentiations the following combinations of cytokines were used: pathogenic Th17 (Th17p): 25 ng/ml rmIL-6, 20 ng/ml rmIL-1b (both Miltenyi Biotec) and 20 ng/ml rmIL-23 (R&D systems); non-pathogenic Th17 (Th17n): 25 ng/ml rmIL-6 and 2 ng/ml of rhTGFb1 (Miltenyi Biotec). For differentiation experiments, cells were harvested at 72 hours and were performed in the presence or absence of 50 μM EGCG (Selleck Chemicals), 50 μM DHEA, 40 μM DCA, 10 μM Shikonin (all Sigma) as indicated.
Proliferation was assessed by staining with CellTrace Violet (Thermo Fisher Scientific) per manufacturer's instructions. All stainings were analyzed on a FACS LSR II (BD Bioscience) and using FlowJo software.

[3] = test system: Th17n, Th17p and iTreg cells; assay: Population (bulk) RNA-seq of in vitro differentiated T cells; type: cell-based, mouse
Description: (§2) RNA-seq. For population (bulk) RNA-seq, in vitro differentiated T-cells were sorted for live cells and lysed with RLT Plus buffer and RNA was extracted using the RNeasy Plus Mini Kit (Qiagen). Full-length RNA-seq libraries were prepared as previously described and paired-end sequenced (75 bp×2) with a 150 cycle Nextseq 500 high output V2 kit.
Bulk RNA-Seq and SMART-Seq2 analysis. Applicants aligned single-cell SMART-Seq2 libraries with Bowtie2, quantified TPM gene expression with RSEM, and performed QC as Applicants described in detail in a previous publication^51. This computational pipeline is a massively revised and updated version of the one originally used to analyze these libraries^19. Batch effects and other nuisance factors were normalized with a model chosen empirically with SCONE ^52. Bulk RNA-Seq were processed with a modified variant of the same pipeline. In the absence of UMIs, differentially expressed genes were called through a linear model fitted to TPM values with the limma R package and with a mean-variance trend added to the empirical bayes prior^53,54.
as §2
Bulk RNA libraries from DFMO- or vehicle-treated Th17p, Th17n, or Treg were studied with 3 replicates per condition for a total of 18 libraries as shown in FIG. 36A. Genes that are associated with a Th17 or Treg programs (orange and purple, respectively, in FIG. 36B-C) were determined by differential expression test between bulk RNA libraries of (vehicle-treated) Th17n and Th17p on one side and Treg on the other with BH-adjusted p<0.05 and absolute value of log 2 fold-change of at least 1.5. Genes associated with the Th17p or Th17n program (magenta and green, respectively, in FIG. 40A) were determined by differential expression test between bulk RNA libraries of (vehicle-treated) Th17p vs. Th17n with the same thresholds. The PCA shown in FIG. 36A was computed on the set of 3,414 that were differentially associated with Th17, Treg, Th17p, or Th17n programs by the aforementioned criteria to focus it on the subspace of the transcriptome relevant to Th17 pathogenicity phenotypes.
Applicants aligned single-cell SMART-Seq libraries with Bowtie2, quantified TPM gene expression with RSEM, and performed QC as Applicants described in detail in a previous publication (Fletcher et al., 2017). This computational pipeline is a massively revised and updated version of the one originally used to analyze these libraries (Gaublomme et al., 2015). Batch effects and other nuisance factors were normalized with a model chosen empirically with SCONE (Cole et al., 2019). Bulk RNA-Seq were processed with a modified variant of the same pipeline.
For the Smart-Seq libraries, due the absence of UMIs in the dataset, differentially expressed genes were called through a linear model _tted to TPM values with the limma R package and with a mean-variance trend added to the empirical Bayes prior (Ritchie et al., 2015). For the bulk RNA libraries, differentially expressed genes were called with limma-trend or limma-voom (Law et al., 2014) depending on the variance of library sizes, as recommended in the limma package manual (Smyth, 2019).

[4] = test system: MOG35-55 specific T cells; assay: Antigen-specific recall response of draining lymph node cells to MOG35-55 (thymidine incorporation, Legendplex); type: in vivo, mouse; details: mice transferred with DHEA-treated Th17p cells
Description: FIG. 37A-37I—Targeting ODC1 and SAT1 alleviate EAE. (A) Schematics of the polyamine pathway; (B-D) The effects of chemical inhibition of ODC1 by DFMO on EAE. Wildtype mice were immunized with MOG35-55/CFA to induce experimental autoimmune encephalomyelitis and followed for clinical scoring. DFMO were provided in drinking water from day 0 for 10 days in experimental group. B, Clinical score over time. […] C, Antigen-specific cell proliferation is measured by thymidine incorporation after culturing cells isolated from draining lymph node of mice (d15 post immunization) with increasing dose of MOG35-55 peptide for 3 days. D, Flow cytometric analysis of intracellular Foxp3 expression in T cells isolated from CNS at day 15 post immunization. (E-I) The effects of genetic perturbation of SAT1. E, The effects of SAT1 deficiency on metabolome. Abundance of metabolites in the polyamine pathway were determined by LC/MS based metabolomics. Th17n and Th17p cells were differentiated in vitro from naïve cells isolated from WT or SAT1^−/− mice. (F-I) The effects of SAT1 deficiency on EAE. EAE were induced as in (B) in wildtype and SAT1^fl/flCD4^cre mice. F, Clinical score (left) and histological score (right) showing the number of CNS infiltrates show representative experiment with 5 WT and 8 CKO mice. G-H, Cells were isolated from draining lymph node of mice (d23 post immunization) and co-cultured with increasing dose of MOG35-55 peptide for 3 days. Antigen-specific cell proliferation is measured by thymidine incorporation (G) and antigen-specific cytokine secretion by legendplex (H). I, Flow cytometry analysis of intracellular transcription factor expression in CD4 T cells isolated from CNS day 15 post immunization. Linear regression analysis (b, c, f, g), two-way anova (e) and student t test (d, i) were used for statistical analysis.
FIG. 46A-46J—EGCG exacerbates and DHEA ameliorates Th17-induced EAE in vivo. 2D2 TCR-transgenic Th17 cells were adoptively transferred after differentiation in vitro in the presence of an inhibitor or vehicle as indicated. (A, C, G) Clinical outcome of EAE; (B, D) Histological score based on cell infiltrates in meninges and parenchyma of CNS; (E, F) Draining lymph node (cervical) from respective mice were isolated and pulsed with increasing dose of MOG35-55 peptide for 3 days and (E) subjected to thymidine incorporation assay; or (F) measurement of cytokine secretion by Legendplex and flow cytometry. Concentrations were normalized through division by the respective response to no antigen control (H-I) Independent pathological report of CNS isolated from mice with EAE at end point (d35 for EGCG experiments; d28 for DHEA experiment); Optic nerves were not found in the histologic section from one animal in the EGCG+IL-23 group. (J) Representative histology of spinal cord and spinal nerve roots. […] PC, posterior column; PH, posterior horn. Individual mouse numbers are indicated. […] All are H. & E., 40× objective. Three similar experiments were performed.

[5] = test system: experimental autoimmune encephalomyelitis (EAE); assay: Adoptive transfer EAE with 2D2 TCR-transgenic Th17 cells differentiated in the presence of inhibitor; type: in vivo, mouse
Text: For adoptive transfer EAE, naïve 2D2 transgenic T cells were sorted and differentiated into Th17n cells+/−EGCG or Th17p+/−DHEA as described for three days followed by a resting phase in the presence of IL-23 alone for 2 days. Cells were then harvested and restimulated with plate-bound anti-CD3 and anti-CD28 for 2 days prior to transfer. 2-8 million cells were transferred per mouse intravenously.
For adoptive transfer EAE, naive T cells (CD4+CD44-CD62L+CD25-) were isolated from 2D2 TCR-transgenic mice and activated with anti-CD3 ([…]) and anti-CD28 ([…]) in the presence of differentiation cytokines for 68h. Cells were rested for 2 days and restimulated with plate-bound anti-CD3 (0.5 mg/ml for pathogenic condition; […] for non-pathogenic condition) and anti-CD28 ([…]) for 2 days prior to transfer. Equal number (2 to 8 million) cells were transferred per mouse intravenously.

UTX (KDM6A) = UTX (KDM6A) (Homo sapiens, UniProt O15550); details: cited from earlier work
KDMSB = KDMSB (Homo sapiens, UniProt Q9UGL1); details: cited from earlier work
KDMSC = KDMSC (Homo sapiens, UniProt P41229); details: cited from earlier work
KDMSA = KDMSA (Homo sapiens, UniProt P29375); details: cited from earlier work
[6] = test system: other histone demethylases; details: cited from earlier work
100 protein kinases = details: at a concentration of 30 μM; cited from earlier work
Th17n and Th17p cells = assay: Seahorse assay, oxygen consumption rate; type: cell-based, mouse; details: 40 uM etomoxir
Description: FIG. 44A-44I—Differential usage of glycolysis and fatty acid oxidation by pathogenic and non-pathogenic Th17 cells. (A) A diagram of central carbon metabolism, overlaid with Compass prediction for differential potential activity between Th17p and Th17n. […] (B) Th17n, Th17p and Treg cells were differentiated as described (STAR Methods) and replated with Seahorse media at 68h for Seahorse assay. Extracellular acidification rate (ECAR) and oxygen consumption rate (OCR) are reported in response to mitostress test. (C) Th17p and Th17n cells were differentiated and harvested at 68h (left columns) or replated in fresh media with no TCR stimulation or cytokine for 15 minutes (right columns) and subject to LC/MS based metabolomics. (D) Cells were harvested as in C and pulsed with 13C-tagged glucose for 15 minutes. Shown is the ratio of 13C-tagged carbon out of the total carbon content associated with the metabolite (STAR Methods). (E) Th17n and Th17p cells were measured for their oxygen consumption rate in the presence of control or 40 uM etomoxir. […]
as §1, with “Seahorse assay was performed and seahorse media was prepared following manufacturer instructions (Agilent). […]” for “Legendplex.”

UTX (KDM6A), sequence (O15550 whole entry, species assumed): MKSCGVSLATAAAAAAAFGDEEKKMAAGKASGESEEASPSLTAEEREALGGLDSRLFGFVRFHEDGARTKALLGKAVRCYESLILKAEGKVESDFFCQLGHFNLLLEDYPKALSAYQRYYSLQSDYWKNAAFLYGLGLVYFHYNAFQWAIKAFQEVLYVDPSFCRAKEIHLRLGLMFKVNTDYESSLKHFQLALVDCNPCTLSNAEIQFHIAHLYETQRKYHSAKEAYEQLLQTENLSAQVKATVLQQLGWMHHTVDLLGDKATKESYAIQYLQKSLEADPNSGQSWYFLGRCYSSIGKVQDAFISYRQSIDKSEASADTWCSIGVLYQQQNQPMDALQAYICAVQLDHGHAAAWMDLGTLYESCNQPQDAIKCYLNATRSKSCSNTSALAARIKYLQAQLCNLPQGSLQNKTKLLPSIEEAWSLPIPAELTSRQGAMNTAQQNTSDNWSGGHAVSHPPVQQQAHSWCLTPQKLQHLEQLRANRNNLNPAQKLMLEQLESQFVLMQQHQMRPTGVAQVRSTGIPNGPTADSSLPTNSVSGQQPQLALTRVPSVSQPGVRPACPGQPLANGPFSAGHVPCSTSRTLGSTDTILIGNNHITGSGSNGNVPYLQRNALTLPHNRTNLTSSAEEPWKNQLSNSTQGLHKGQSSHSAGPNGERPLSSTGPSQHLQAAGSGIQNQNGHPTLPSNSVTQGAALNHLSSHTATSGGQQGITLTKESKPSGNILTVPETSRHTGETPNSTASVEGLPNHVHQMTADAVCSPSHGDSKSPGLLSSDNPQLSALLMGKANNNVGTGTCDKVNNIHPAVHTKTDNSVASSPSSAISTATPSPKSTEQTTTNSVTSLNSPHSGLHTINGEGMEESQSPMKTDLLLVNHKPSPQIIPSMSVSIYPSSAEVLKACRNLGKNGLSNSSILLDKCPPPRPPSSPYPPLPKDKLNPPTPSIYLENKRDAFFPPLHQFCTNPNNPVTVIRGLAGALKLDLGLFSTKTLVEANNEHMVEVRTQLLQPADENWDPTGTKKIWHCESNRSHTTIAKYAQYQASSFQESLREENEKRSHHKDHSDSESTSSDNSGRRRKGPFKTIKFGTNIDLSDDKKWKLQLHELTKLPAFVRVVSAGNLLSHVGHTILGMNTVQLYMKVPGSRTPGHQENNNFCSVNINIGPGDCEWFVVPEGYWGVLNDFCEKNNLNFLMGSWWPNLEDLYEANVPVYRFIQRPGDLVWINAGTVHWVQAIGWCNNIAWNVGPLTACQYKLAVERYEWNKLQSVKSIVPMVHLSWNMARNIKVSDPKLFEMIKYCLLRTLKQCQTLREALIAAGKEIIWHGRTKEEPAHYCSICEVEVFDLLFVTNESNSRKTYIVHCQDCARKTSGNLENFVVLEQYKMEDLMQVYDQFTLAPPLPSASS
KDMSB, sequence (Q9UGL1 whole entry): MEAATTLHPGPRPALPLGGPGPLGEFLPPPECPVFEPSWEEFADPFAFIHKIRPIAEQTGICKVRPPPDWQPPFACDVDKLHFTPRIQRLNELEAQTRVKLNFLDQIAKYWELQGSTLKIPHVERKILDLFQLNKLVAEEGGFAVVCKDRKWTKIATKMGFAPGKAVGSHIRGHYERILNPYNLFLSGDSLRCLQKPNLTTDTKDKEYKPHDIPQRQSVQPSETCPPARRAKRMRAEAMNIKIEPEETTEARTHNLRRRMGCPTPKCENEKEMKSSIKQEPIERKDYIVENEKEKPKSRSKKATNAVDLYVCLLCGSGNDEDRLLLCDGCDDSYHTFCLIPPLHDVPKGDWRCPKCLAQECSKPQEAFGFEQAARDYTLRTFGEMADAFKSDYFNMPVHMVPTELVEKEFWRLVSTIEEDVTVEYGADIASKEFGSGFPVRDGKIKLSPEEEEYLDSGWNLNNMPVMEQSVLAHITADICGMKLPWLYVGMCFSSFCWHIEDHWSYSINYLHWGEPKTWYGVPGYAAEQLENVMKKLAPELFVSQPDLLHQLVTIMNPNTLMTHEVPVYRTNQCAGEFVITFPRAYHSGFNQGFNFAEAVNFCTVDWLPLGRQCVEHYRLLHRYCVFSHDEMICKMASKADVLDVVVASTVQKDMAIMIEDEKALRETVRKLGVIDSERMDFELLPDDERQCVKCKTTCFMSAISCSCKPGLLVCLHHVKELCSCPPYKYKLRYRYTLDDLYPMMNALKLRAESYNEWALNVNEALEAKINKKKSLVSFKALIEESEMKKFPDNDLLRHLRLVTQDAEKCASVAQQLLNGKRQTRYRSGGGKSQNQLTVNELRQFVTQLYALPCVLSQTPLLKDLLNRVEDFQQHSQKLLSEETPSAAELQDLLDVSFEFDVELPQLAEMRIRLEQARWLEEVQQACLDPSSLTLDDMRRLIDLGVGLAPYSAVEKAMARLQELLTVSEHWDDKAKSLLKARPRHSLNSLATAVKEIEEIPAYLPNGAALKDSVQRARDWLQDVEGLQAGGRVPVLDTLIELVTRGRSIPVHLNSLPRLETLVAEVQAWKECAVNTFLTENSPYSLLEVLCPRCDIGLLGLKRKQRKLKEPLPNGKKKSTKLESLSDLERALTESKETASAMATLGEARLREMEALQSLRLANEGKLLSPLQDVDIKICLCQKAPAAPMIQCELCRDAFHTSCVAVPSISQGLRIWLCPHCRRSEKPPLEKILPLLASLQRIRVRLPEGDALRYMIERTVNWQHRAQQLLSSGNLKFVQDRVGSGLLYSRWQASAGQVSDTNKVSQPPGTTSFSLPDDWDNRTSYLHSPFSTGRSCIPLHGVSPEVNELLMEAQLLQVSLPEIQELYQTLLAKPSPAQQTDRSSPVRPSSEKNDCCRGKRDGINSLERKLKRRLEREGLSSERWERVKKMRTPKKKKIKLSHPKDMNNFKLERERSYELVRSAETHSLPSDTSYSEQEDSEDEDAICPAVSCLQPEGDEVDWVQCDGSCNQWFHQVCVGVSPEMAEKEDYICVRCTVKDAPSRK
KDMSC, sequence (P41229 whole entry): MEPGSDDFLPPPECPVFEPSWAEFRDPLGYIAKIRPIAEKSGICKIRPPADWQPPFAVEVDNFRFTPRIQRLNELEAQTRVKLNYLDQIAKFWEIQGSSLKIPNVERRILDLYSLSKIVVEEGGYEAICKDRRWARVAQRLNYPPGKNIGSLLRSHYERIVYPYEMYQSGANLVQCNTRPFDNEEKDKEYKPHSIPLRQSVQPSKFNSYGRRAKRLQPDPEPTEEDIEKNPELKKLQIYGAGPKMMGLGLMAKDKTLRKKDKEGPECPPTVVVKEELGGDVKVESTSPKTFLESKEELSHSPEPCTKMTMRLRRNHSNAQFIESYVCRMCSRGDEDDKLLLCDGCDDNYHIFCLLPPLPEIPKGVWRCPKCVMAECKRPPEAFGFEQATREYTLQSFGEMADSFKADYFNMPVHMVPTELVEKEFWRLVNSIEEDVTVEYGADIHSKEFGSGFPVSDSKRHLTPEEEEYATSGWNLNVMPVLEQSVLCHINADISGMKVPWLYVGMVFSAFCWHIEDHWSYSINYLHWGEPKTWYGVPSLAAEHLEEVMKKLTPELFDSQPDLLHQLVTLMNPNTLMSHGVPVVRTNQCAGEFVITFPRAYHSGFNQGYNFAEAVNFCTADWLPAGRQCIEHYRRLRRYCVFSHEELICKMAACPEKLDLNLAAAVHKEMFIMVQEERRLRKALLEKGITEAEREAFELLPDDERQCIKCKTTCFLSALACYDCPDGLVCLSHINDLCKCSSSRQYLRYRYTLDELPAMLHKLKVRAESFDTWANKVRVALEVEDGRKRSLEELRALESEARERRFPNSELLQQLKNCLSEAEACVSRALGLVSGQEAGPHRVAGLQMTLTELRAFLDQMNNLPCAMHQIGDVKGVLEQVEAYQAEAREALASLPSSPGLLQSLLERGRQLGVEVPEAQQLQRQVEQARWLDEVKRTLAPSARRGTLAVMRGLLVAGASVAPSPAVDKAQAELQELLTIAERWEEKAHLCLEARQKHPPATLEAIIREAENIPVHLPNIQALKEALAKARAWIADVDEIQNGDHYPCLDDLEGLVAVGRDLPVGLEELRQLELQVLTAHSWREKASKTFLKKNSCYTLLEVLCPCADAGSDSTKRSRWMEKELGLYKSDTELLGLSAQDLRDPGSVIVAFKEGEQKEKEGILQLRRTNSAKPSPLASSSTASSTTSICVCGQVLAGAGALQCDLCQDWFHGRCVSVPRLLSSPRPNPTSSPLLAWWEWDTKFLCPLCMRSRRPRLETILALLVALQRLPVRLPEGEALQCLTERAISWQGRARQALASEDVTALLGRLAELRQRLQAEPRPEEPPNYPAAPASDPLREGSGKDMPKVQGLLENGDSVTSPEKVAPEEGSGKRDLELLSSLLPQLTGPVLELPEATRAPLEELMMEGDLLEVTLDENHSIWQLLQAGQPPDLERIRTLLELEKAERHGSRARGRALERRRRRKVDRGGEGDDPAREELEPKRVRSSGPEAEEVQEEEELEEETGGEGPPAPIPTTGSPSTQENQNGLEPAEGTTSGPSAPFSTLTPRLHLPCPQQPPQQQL

## O=C(OCC(O)CO)C(Cl)Cl (stereo not shown) [DCA, 2,3-dihydroxypropyl-dichloroacetate]
[1]
  cytokine profile / cytokine production: retained their cytokine profile
[2]
  IL-17 positive CD4 T cells / IL-17 expression: increase

## C[C@]12CC[C@H](O)CC1=CC[C@@H]1[C@@H]2CC[C@]2(C)C(=O)CC[C@@H]12 [DHEA, dehydroepiandrosterone]
[1]
  cytokine profile / cytokine production: curtailed cytokine production
[3]
  IL1RN transcripts: significant decrease
  IL9 transcripts: significant decrease
[3]; Th17n cells
  pro-pathogenic transcriptional program / module: does not induce an opposite effect
[3]; Th17p
  decrease in TBX21 (Tbet) transcripts: 1 fold
[3]; Th17p cells
  pathogenic program: suppresses the pathogenic program
[3]; both Th17p and Th17n
  IL23R transcripts: significant decrease
  TBX21 transcripts: significant decrease
  decrease in IL-23R transcripts: over 3 fold
[3]; bulk RNA-Seq of d1 Th17n and Th17p cells
  position on PC1 (pathogenicity phenotype): shifted them to a less pathogenic state
[4]
  IL-2 secretion in response to MOG: increased
  antigen-specific cytokine secretion in response to MOG: no significant alterations
[5]; EGCG on Th17n, DHEA on Th17p
  optic neuritis/perineuritis in host mice: restricted
[5]; Th17p cells differentiated with inhibitor vs vehicle
  EAE induced by Th17p cells: induced a milder form of the disease; also recorded: alleviates EAE; also recorded: reduced the severity of disease at peak of EAE; also recorded: ameliorates
[2]
  IL-17 positive CD4 T cells / IL-17 expression: decrease

## O=C(O)CCNc1cc(N2CCc3ccccc3CC2)nc(-c2ccccn2)n1 [GSK-J1]
UTX (KDM6A)
  IC50: 53 nM
KDMSB
  IC50: 170 nM
KDMSC
  IC50: 550 nM
KDMSA
  IC50: 6.8 µM
[6]
  IC50: > 20 µM
100 protein kinases
  inhibitory activity against 100 protein kinases: no significant inhibitory activity

## CCOC(=O)[C@@]1(CCCCCCOc2ccc(Cl)cc2)CO1 [etomoxir]
Th17n and Th17p cells
  oxygen consumption rate: decreased

## NCCCCN [putrescine]
[2]; ODC1−/− Th17 cells
  rescue by putrescine of the observed effects of ODC1−/−: rescued
[2]; Th17n cells, 2.5 mM putrescine
  reversal by putrescine of the upregulation of Foxp3 by SAT1 inhibitor: partially reversed
[2]; cells treated with DFMO, 2.5 mM putrescine
  rescue of the effect of DFMO by addition of putrescine: rescues the effect of DFMO; also recorded: completely reversed their phenotype
[2]; non-pathogenic Th17 cells
  rescue by putrescine of the effect of diminazene aceturate: rescues the effect of diminazene aceturate
  rescue of the effect of DFMO by addition of putrescine: rescues the effect of DFMO
[2]; nonpathogenic Th17 cells
  rescue by putrescine of the DFMO-induced increase in FoxP3 CD4 T cells: rescues the increase in FoxP3 CD4 T cells
[2]; pathogenic and non-pathogenic Th17 cells
  rescue of the effect of DFMO by addition of putrescine: rescues the effect of DFMO
